Read-outs that look alike come from different tables or passages of the source.
How the values were obtained:
[1] = system: TS-resistant strain of MG; type: in vivo, chicken; details: for antimicrobial activity compared with ERFX: in vivo, po; for Infectious index Left air sack + / Infectious index Left air sack ++ / Infectious index Left air sack +++ / Infectious index Left air sack - / Infectious index Right air sack + / Infectious index Right air sack ++ / Infectious index Right air sack +++ / Infectious index Right air sack -: count of fowl; for Infectious index Left air sack + / Infectious index Left air sack ++ / Infectious index Left air sack +++ / Infectious index Left air sack - / Infectious index Right air sack + / Infectious index Right air sack ++ / Infectious index Right air sack +++ / Infectious index Right air sack - / Number of fowl having air sack lesions / Number of infected fowl/Number of fowl tested: 9-days chicken; for Number of infected fowl/Number of fowl tested: 3.5 x 10³ CFU/fowl
[2] = system: Pasteurella piscicida (P.pis) No. 2; experiment: In vitro sensitivity test; type: cell-based; details: 25°C, 40 to 48 hours
Protocol: (§1) Survey of the sensitivity of the compound (I) to various strains of microorganisms was performed by a liquid dilution method […] an agar dilution method, in which the bacteria used were of animal origin and included the following strains (15 strains out of 11 bacteria): Chicken-origin strain: Mycoplasma gallisepticum (MG), Mycoplasma synoviae (MS), Hemophilus paragallinarum (H.pg) and Escherichia coli (E.coli); Pig-origin strain: Mycoplasma hyopneumoniae (Mh), Hemophilus pleuropneumonia (H.pp) and Bordetella bronchiseptica (B.br); Fish-origin strain: Pasteurella piscicida (P.pis) and Streptococcus sp (Str.sp); others: Escherichia coli (E. coli), Salmonella typhimurium (S.typhi) and Staphylococcus aureus (S.au).
(§2) Of these bacteria, the strains belonging to MG, MS and Mh were cultured at 37°C for 7 days by a liquid dilution method, of which the culture medium comprised: 12 % horse-serum added "PPLO" (agar manufactured by Difco) medium for MG; 12 % pig-serum, 0.01 % βNAD (nicotinamide adenine dinucleotide) added Frey medium for MS; 0.5 % lactoalbumin added Hank's solution, 10 % horse-serum, 0.5 % yeast extract (25 %) for Mh, and the agar dilution method was applied to the strains belonging to H.pg, H.pp, S.typhi, E.coli, S.au and B.br. Specifically, the H.pg strain was cultured in a 5 % chicken-serum added chicken bouillon medium and the H.pp strain was cultured in a heart infusion agar added with 10 % sheep defibered blood and 0.05 % βNAD. In case of the H.pg and P.pp strains, observation was made after cultivation at 37°C for 20 hours under 10 % CO₂. Mueller Hinton agar (Difco) was used for the strains belonging to S.typhi, E.coli, S.au and B.br, and observation was made after cultivation at 37°C for 20 to 24 hours. P.pis and Str.sp, both being of fish-origin, were respectively cultured at 25°C for 40 to 48 hours in a 1.5 % NaCl added heart infusion agar and in a sensitive disk medium.

[3] = system: Streptococcus sp (Str.sp) SNO6119; experiment: In vitro sensitivity test; type: cell-based; details: 25°C, 40 to 48 hours
Protocol: as §1, §2

[4] = system: Escherichia coli (E.coli) E-17, chicken-origin strain isolated from the field; experiment: In vitro sensitivity test (agar dilution method); type: cell-based; details: 37°C, 20 to 24 hours
Protocol: as §1, §2

[5] = system: Hemophilus pleuropneumonia (H.pp) M-1; experiment: In vitro sensitivity test (agar dilution method); type: cell-based; details: 37°C, 20 hours, 10 % CO₂
Protocol: as §1, §2

[6] = system: Bordetella bronchiseptica (B.br) ABU-1; experiment: In vitro sensitivity test (agar dilution method); type: cell-based; details: 37°C, 20 to 24 hours
Protocol: as §1, §2

[7] = system: Escherichia coli (E.coli) JC-2; experiment: In vitro sensitivity test (agar dilution method); type: cell-based; details: 37°C, 20 to 24 hours
Protocol: as §1, §2

[8] = system: Staphylococcus aureus (S.au) 209P; experiment: In vitro sensitivity test (agar dilution method); type: cell-based; details: 37°C, 20 to 24 hours
Protocol: as §1, §2

[9] = system: Hemophilus paragallinarum (H.pg) 221; experiment: In vitro sensitivity test (agar dilution method); type: cell-based; details: agar dilution, 37°C, 20 hours, 10 % CO₂
Protocol: as §1, §2

[10] = system: Salmonella typhimurium (S.typhi) 13311; experiment: In vitro sensitivity test (agar dilution method); type: cell-based; details: 37°C, 20 to 24 hours
Protocol: as §1, §2

[11] = system: Hemophilus paragallinarum (H.pg) S-1; experiment: In vitro sensitivity test (agar dilution method); type: cell-based; details: agar dilution, 37°C, 20 hours, 10 % CO₂
Protocol: as §1, §2

[12] = system: Mycoplasma gallisepticum (MG) S6; experiment: In vitro sensitivity test (liquid dilution method); type: cell-based; details: 37°C, 7 days
Protocol: as §1, §2

[13] = system: Mycoplasma hyopneumoniae (Mh) ST-11; experiment: In vitro sensitivity test (liquid dilution method); type: cell-based; details: 37°C, 7 days
Protocol: as §1, §2

TS-resistant MG = experiment: Experimental MG infection to chicken, through bait; type: in vivo; details: 9-days chicken, 6.6 x 10³ CFU/fowl, dissection 6th day after inoculation
[14] = oral 1.56 mg/kg, 2.2 x 10³ CFU/fowl
[15] = oral 6.25 mg/kg, 2.2 x 10³ CFU/fowl
[16] = oral 12.5 mg/kg, 2.2 x 10³ CFU/fowl
[17] = oral 25.0 mg/kg, 2.2 x 10³ CFU/fowl
[18] = oral 6.25 mg/kg, 1.7 x 10³ CFU/fowl
[19] = oral 12.5 mg/kg, 1.7 x 10³ CFU/fowl
[20] = oral 25.0 mg/kg, 1.7 x 10³ CFU/fowl

CNC[C@@]12CCC[C@@H]1CN(c1c(F)cc3c(=O)c(C(=O)O)cn(C4CC4)c3c1Cl)C2.Cl (relative stereo) [I-11, 7-[(1R*,5S*)-1-methylaminomethyl-3-azabicyclo[3.3.0]octan-3-yl]-1-cyclopropyl-8-chloro-6-fluoro-1,4-dihydro-4-oxo-3-quinolinecarboxylic acid hydrochloride]
antimicrobial activity compared with ERFX [1]: nearly equal potency to ERFX

CNC[C@@]12CCC[C@@H]1CN(c1c(Cl)cc3c(=O)c(C(=O)O)cn(C4CC4)c3c1Cl)C2.Cl (relative stereo) [I-10, 7-[(1R*,5S*)-1-methylaminomethyl-3-azabicyclo[3.3.0]octan-3-yl]-1-cyclopropyl-6,8-dichloro-1,4-dihydro-4-oxo-3-quinoline carboxylic acid hydrochloride]
Infectious index Left air sack + [1, 14]: 0
Infectious index Left air sack ++ [1, 14]: 0
Infectious index Left air sack +++ [1, 14]: 0
Infectious index Left air sack - [1, 14]: 4
Infectious index Right air sack + [1, 14]: 2
Infectious index Right air sack ++ [1, 14]: 0
Infectious index Right air sack +++ [1, 14]: 1
Infectious index Right air sack - [1, 14]: 1
Infectious index Left air sack + [1, 15]: 1
Infectious index Left air sack ++ [1, 15]: 0
Infectious index Left air sack +++ [1, 15]: 0
Infectious index Left air sack - [1, 15]: 4
Infectious index Right air sack + [1, 15]: 2
Infectious index Right air sack ++ [1, 15]: 2
Infectious index Right air sack +++ [1, 15]: 0
Infectious index Right air sack - [1, 15]: 1
Infectious index Left air sack + [1, 16]: 0
Infectious index Left air sack ++ [1, 16]: 0
Infectious index Left air sack +++ [1, 16]: 0
Infectious index Left air sack - [1, 16]: 5
Infectious index Right air sack + [1, 16]: 0
Infectious index Right air sack ++ [1, 16]: 0
Infectious index Right air sack +++ [1, 16]: 0
Infectious index Right air sack - [1, 16]: 5
Infectious index Left air sack + [1, 17]: 0
Infectious index Left air sack ++ [1, 17]: 0
Infectious index Left air sack +++ [1, 17]: 0
Infectious index Left air sack - [1, 17]: 5
Infectious index Right air sack + [1, 17]: 0
Infectious index Right air sack ++ [1, 17]: 0
Infectious index Right air sack +++ [1, 17]: 0
Infectious index Right air sack - [1, 17]: 5
Number of fowl having air sack lesions [1, 14]: 3
Number of fowl having air sack lesions [1, 15]: 4
Number of fowl having air sack lesions [1, 16]: 0
Number of fowl having air sack lesions [1, 17]: 0
In vitro Sensitivity Test P.pis No. 2 [2]: 1.56 µg/mL
In vitro Sensitivity Test Str.sp SNO6119 [3]: 0.78 µg/mL
In vitro Sensitivity Test E.coli E-17 [4]: 0.39 µg/ml
In vitro Sensitivity Test H.pp M-1 [5]: 0.78 µg/mL
In vitro Sensitivity Test B.br ABU-1 [6]: 12.5 µg/mL
In vitro Sensitivity Test E.coli JC-2 [7]: 0.78 µg/mL
In vitro Sensitivity Test S.au 209P [8]: 0.025 to 0.05 µg/mL
In vitro Sensitivity Test H.pg 221 [9]: 0.78 µg/mL
In vitro Sensitivity Test S.typhi 13311 [10]: 0.78 µg/mL
In vitro Sensitivity Test H.pg S-1 [11]: 0.39 µg/mL
In vitro Sensitivity Test MG S6 [12]: 0.00625 µg/mL
In vitro Sensitivity Test Mh ST-11 [13]: 0.05 µg/mL

Cl.N[C@H]1CC[C@H]2CN(c3c(F)cc4c(=O)c(C(=O)O)cn(C5CC5)c4c3F)C[C@H]21 (relative stereo) [I-12]
antimicrobial activity compared with ERFX [1]: two times more effective than ERFX
complete inihibition of the lesions in air sac at a concentration of ([1]; oral administration, MG-infected chicken): about 3.13 mg/kg
In vitro Sensitivity Test P.pis No. 2 [2]: 0.39 µg/mL
In vitro Sensitivity Test Str.sp SNO6119 [3]: 0.78 µg/mL
In vitro Sensitivity Test H.pp M-1 [5]: 0.2 µg/mL
In vitro Sensitivity Test B.br ABU-1 [6]: 0.39 µg/mL
In vitro Sensitivity Test E.coli JC-2 [7]: 0.1 µg/mL
In vitro Sensitivity Test S.au 209P [8]: 0.1 µg/mL
In vitro Sensitivity Test S.typhi 13311 [10]: 0.1 µg/mL
In vitro Sensitivity Test MG S6 [12]: 0.00313 µg/mL
In vitro Sensitivity Test Mh ST-11 [13]: <0.00625 µg/mL

CCn1cc(C(=O)O)c(=O)c2cc(F)c(N3C[C@H]4CCC[C@@]4(CNC)C3)c(F)c21.Cl (relative stereo) [I-19, 7-[(1R*,5S*)-1-methylaminomethyl-3-azabicyclo[3.3.0]octan-3-yl]-1-ethyl-6,8-difluoro-1,4-dihydro-4-oxo-3-quinolinecarboxylic acid hydrochloride]
Number of infected fowl/Number of fowl tested ([1]; oral 1.56 mg/kg): 3/5
Number of infected fowl/Number of fowl tested ([1]; oral 3.13 mg/kg): 3/5
Number of infected fowl/Number of fowl tested ([1]; oral 6.25 mg/kg): 1/5
In vitro Sensitivity Test P.pis No. 2 [2]: 1.56 µg/mL
In vitro Sensitivity Test Str.sp SNO6119 [3]: 1.56 µg/mL
In vitro Sensitivity Test H.pp M-1 [5]: 0.78 µg/mL
In vitro Sensitivity Test E.coli JC-2 [7]: 0.39 µg/mL
In vitro Sensitivity Test S.au 209P [8]: 0.05 µg/mL
In vitro Sensitivity Test S.typhi 13311 [10]: 0.78 µg/mL
Number of infected fowl/Number of fowl tested (TS-resistant MG; bait 31.3 ppm/Day): 1/7
Number of infected fowl/Number of fowl tested (TS-resistant MG; bait 62.5 ppm/Day): 0/7
Number of infected fowl/Number of fowl tested (TS-resistant MG; bait 125 ppm/Day): 0/7
In vitro Sensitivity Test MG S6 [12]: 0.00625 µg/mL
In vitro Sensitivity Test Mh ST-11 [13]: 0.39 µg/mL

O=C(O)c1cn(C2CC2)c2c(F)c(N3CC4CCCC(=O)C4C3)c(F)cc2c1=O (stereo not shown) [I-4]
Infectious index Left air sack + [1, 18]: 1
Infectious index Left air sack ++ [1, 18]: 0
Infectious index Left air sack +++ [1, 18]: 0
Infectious index Left air sack - [1, 18]: 3
Infectious index Right air sack + [1, 18]: 1
Infectious index Right air sack ++ [1, 18]: 1
Infectious index Right air sack +++ [1, 18]: 0
Infectious index Right air sack - [1, 18]: 2
Infectious index Left air sack + [1, 19]: 0
Infectious index Left air sack ++ [1, 19]: 0
Infectious index Left air sack +++ [1, 19]: 0
Infectious index Left air sack - [1, 19]: 5
Infectious index Right air sack + [1, 19]: 0
Infectious index Right air sack ++ [1, 19]: 0
Infectious index Right air sack +++ [1, 19]: 0
Infectious index Right air sack - [1, 19]: 5
Infectious index Left air sack + [1, 20]: 0
Infectious index Left air sack ++ [1, 20]: 0
Infectious index Left air sack +++ [1, 20]: 0
Infectious index Left air sack - [1, 20]: 5
Infectious index Right air sack + [1, 20]: 0
Infectious index Right air sack ++ [1, 20]: 0
Infectious index Right air sack +++ [1, 20]: 0
Infectious index Right air sack - [1, 20]: 5
Number of fowl having air sack lesions [1, 18]: 2
Number of fowl having air sack lesions [1, 19]: 0
Number of fowl having air sack lesions [1, 20]: 0
In vitro Sensitivity Test P.pis No. 2 [2]: 6.25 µg/mL
In vitro Sensitivity Test Str.sp SNO6119 [3]: 0.39 µg/mL
In vitro Sensitivity Test H.pp M-1 [5]: 0.2 µg/mL
In vitro Sensitivity Test E.coli JC-2 [7]: 0.2 µg/mL
In vitro Sensitivity Test S.au 209P [8]: 0.05 µg/mL
In vitro Sensitivity Test S.typhi 13311 [10]: 0.39 µg/mL
In vitro Sensitivity Test MG S6 [12]: 0.05 µg/mL
In vitro Sensitivity Test Mh ST-11 [13]: ≦0.025 µg/ml

Source: patent publication EP0429304A2, “Pyridone-carboxylic acid derivatives and their use as veterinary medicines” (SHIONOGI SEIYAKU KABUSHIKI KAISHA trading under the name of …, priority 1989, dated 1991)
